Legend:
[1] = test system: spontaneously hypertensive rats (SHR); assay: Systolic blood pressure by Tail-Cuff method in spontaneous hypertension model (SHR); assay type: in vivo, rat
Procedure: The effects of the immediate-release and sustained-release administrations of febuxostat in a spontaneous hypertension model were ascertained. Male spontaneously hypertensive rats (SHR) aged 12 weeks were subjected to quarantine for a week or more before used as subjects. From 13 weeks of age, habituation to blood pressure measurement with a Tail-Cuff sphygmomanometer (BP-2000, Visitech systems, Napa Place, N.C., USA) was performed for two weeks. At 15 weeks of age after the completion of the habituation, blood pressure was measured, and the subjects were divided into three groups (10 subjects in each group), such that the systolic blood pressures were evenly distributed. Subsequently, the administrations were started. Group 1, a control group, was given tap water. Group 2 was given febuxostat in drinking water. Group 3 was given febuxostat by oral gavage.
The administration in drinking water was performed by giving the subjects access to an aqueous solution of febuxostat ad libitum. In this manner, prolonged drug exposure to the blood, i.e, sustained-release administration can be accomplished, as compared to a single oral administration. On the other hand, the oral administration was performed by giving a suspension of febuxostat in 0.5% MC solution (with a concentration of febuxostat of 2 mg/mL) at 5 mL/kg by oral gavage. The blood level of the drug rapidly increases after the administration and diclines soon. Thus, immediate-release administration can be accomplished in this manner. After 18 days of administration, systolic blood pressure was measured by the Tail-Cuff method.

[2] = test system: adriamycin-induced nephropathy mouse model; assay: Urine albumin excretion in adriamycin-induced nephropathy mouse model; assay type: in vivo
Procedure: The effects of the immediate-release and sustained-release administrations of febuxostat in an adriamycin-induced nephropathy mouse model were ascertained. The adriamycin-induced nephropathy model is known as a renal dysfunction model in which lesions occur in glomerular epithelial cells and proteinuria is observed.
Male BALB/cAnNCrlCrlj mice aged 7 weeks were subjected to quarantine for a week or more before used as subjects.
At 8 weeks of age, a 24-hour urine collection was performed and the concentration of albumin in the collected urine was measured by ELISA. The subjects were divided into three groups, such that the amounts of albumin excretion were evenly distributed. Subsequently, the administrations were started. Group 1, a control group, was given tap water. Group 2 was given febuxostat in drinking water. Group 3 was given febuxostat by oral gavage.
The administration in drinking water was performed by giving the subjects access to an aqueous solution of febuxostat ad libitum. In this manner, prolonged drug exposure, i.e, sustained-release administration can be accomplished, as compared to a single oral administration. On the other hand, the oral administration was performed by giving a suspension of febuxostat in 0.5% MC solution by oral gavage via a tube. The blood level of the drug rapidly increases after the administration and diclines soon. Thus, immediate-release administration can be accomplished in this manner. Following the initiation of dosing on the first day, adriamycin was given to mice via tail vein at 10 mg/kg. Then, the administrations were conducted for 5 consecutive days. A 24-hour urine collection was performed 5 days after onset of drug administration and the amount of albumin in the collected urine was measured as previously described.

SMILES: Cc1nc(-c2ccc(OCC(C)C)c(C#N)c2)sc1C(=O)O [febuxostat, 2-(3-cyano-4-isobutyloxyphenyl)-4-methyl-5-thiazole carboxylic acid]
- systolic blood pressure (mean±standard error) ([1]; Group 2, sustained-release administration, 1.5 mg/kg/day in drinking water, Day 18 of dosing): 199 ± 3 mmHg
- systolic blood pressure (mean±standard error) ([1]; Group 2, sustained-release administration, 1.5 mg/kg/day in drinking water, Pre-dose): 203 ± 3 mmHg
- systolic blood pressure (mean±standard error) ([1]; Group 3, immediate-release administration, 10 mg/kg/day oral gavage, Day 18 of dosing): 217 ± 3 mmHg
- systolic blood pressure (mean±standard error) ([1]; Group 3, immediate-release administration, 10 mg/kg/day oral gavage, Pre-dose): 201 ± 4 mmHg
- blood pressure lowering, sustained-release versus immediate-release administration ([1]; SHR, 18 days of administration): blood pressure was more strongly lowered by administering febuxostat in a sustained-release manner
- Urine albumin excretion (mean±standard error) ([2]; Group 2, sustained-release administration, 3 mg/kg/day in drinking water, Day 0): 0.1 ± 0.1 mg/day
- Urine albumin excretion (mean±standard error) ([2]; Group 2, sustained-release administration, 3 mg/kg/day in drinking water, Day 5, adriamycin 10 mg/kg i.v.): 9.5 ± 3.9 mg/day
- Urine albumin excretion (mean±standard error) ([2]; Group 3, immediate-release administration, 3 mg/kg/day oral gavage, Day 0): 0.1 ± 0.1 mg/day
- Urine albumin excretion (mean±standard error) ([2]; Group 3, immediate-release administration, 3 mg/kg/day oral gavage, Day 5, adriamycin 10 mg/kg i.v.): 18.4 ± 9.7 mg/day
- amelioration of renal dysfunction, sustained-release versus immediate-release administration ([2]; adriamycin-induced nephropathy mice, 5 days of administration): renal dysfunction was more effectively ameliorated by administering febuxostat in a sustained-manner
